# Laboratory results: patent US20070259439A1, “Determination of antibiotic concentration in bone” (Wyeth, priority 2006, published 2007)
# “And” between values parts separate entries of the source, which are not always exact repeats. Equal entries are not always repeated. Where two headings read alike, the source gives them in different places. Marks after values point to notes of the source that are not given here.
# Experiments:
# [1] = test system: Bacillus cereus ATCC 11778; experiment: Verification of tigecycline microbiological activity (agar well diffusion bioassay); assay type: cell-based; details: for Zone Size, Sample: n = 3
# Experimental: Standard Curve Preparation: A stock solution of tigecycline standard powder, at a concentration of 1000 μg/ml, was prepared in normal saline. Dilutions were prepared in normal saline at a concentration range of 4, 2, 1 and 0.5, 0.25, and 0.125 μg/ml for the preparation of the standard curve. The internal standard (1 μg/ml) was also made from stock solution.
# Preparation of Inoculum: An overnight trypticase soy agar blood plate culture (incubated at 30° C.) of Bacillus cereus ATCC 11778 was adjusted to a McFarland 0.5 standard in saline. This suspension yields a bacterial density of approximately 10^8 colony forming units (CFU)/ml.
# Preparation of Bioassay Agar Plates: The agar medium was prepared by adding nutrient broth (8 g) and agarose (11 g or […]) per liter of distilled water. After autoclaving at 121° C. for 15 minutes, the medium was allowed to equilibrate to a temperature of 48-50° C. for approximately 1 hour in a water bath. The adjusted B. cereus culture was used to inoculate the cooled agar to a final concentration of 1% (1 ml/100 ml). A volume of 100 ml is added to a Nunc bioassay dish and the agar allowed to solidify at room temperature on a level surface. After cooling, wells were cut into the surface of the agar assay plate using a vacuum well cutting device. The standard curve and unknown samples were placed into the wells (50 μl) in a predetermined array with three wells each per concentration. An internal standard was also tested in triplicate. The pulverized bone samples (and standards for that experiment) were overlaid with 1.1% agarose (50 μl) to maintain contact with the seeded agar. The plates were pre-diffused at 4° C. for two hours, then incubated at 30° C. for 18-24 hours.
# Determination of antibiotic concentrations in IncRB samples: The diameters of the zones of inhibition for standards and samples were measured using electronic calipers. The concentrations of the standard curve were then plotted on a semilogarithmic scale vs their corresponding zone diameters to give a standard regression curve. The concentrations of the samples and internal standard were determined by comparing the mean zone size of the samples to the zone sizes of the standard curve and their corresponding concentration. A bioassay data analysis program was used to perform the calculations and plots.
# [2] = Antibiotic bone assay (LC/MS/MS): tigecycline concentration in incurred rat bone; assay type: in vivo; details: for concentration at 4 h: rat, femoral bone (pooled, ground), 3 mg/kg
# Experimental: Incurred rat bone was harvested and prepared from rats administered an antibiotic. Two different groups of incurred rat bone were prepared. Group A (n=12) represented bone from rats administered a single dose of tigecycline and Group B (n=19) represented bone from rats administered multiple doses of tigecycline. Group A rats were intravenously administered a single dose of tigecycline at 3 mg/kg. At 4 hours post-dose, the rats were euthanized and the femoral bones were harvested. Group B rats were intravenously administered 3 mg/kg of ^14C-tigecycline, once daily, for 3 days. At 4 hours post-dose, on day 3, the rats were euthanized and the femoral bones were harvested.
# Preparation of incurred rat bone sample: To prepare the bone for extraction, two femoral bones from each rat in each group were collected. Femoral bones were cleaned with a saline solution to remove blood and bone marrow. The bones were air-dried and combined to form two pooled samples of incurred rat bone, Group A and Group B. The femoral rat bone pools were ground for approximately 2 minutes in an industrial blender to produce bone particles <1 mm in diameter. The ground, pooled bone sample for each group was stored at −70° C. for later analysis.
# Incurred rat bone (IncRB) QC sample: Approximately 0.1 g of IncRB (Group A), which was stored at −70° and thawed, was weighed and dissolved in 1.0 ml of the extraction solvent to create a mixture of bone and solvent. Then, 50 μl of extraction solvent were added to match the volume of working standard solutions added to RBCtrl calibrators or QC samples. For IncHB QC sample, the procedure is similar to rat bone except for using a human incurred bone sample and adding L-ascorbic acid solution prior to adding extraction solvent.
# Approximately 100 mg of prepared IncRB and RBCtrl samples (or human control bone or incurred human bone) were accurately weighed and placed into 17×100 mm polypropylene tubes. One hundred twenty μL of stabilizing agent (100 mM ascorbic acid) was added to human bone samples (For the rat bone assay, it was proven that autosampler stability was improved by adding ascorbic acid). One ml of extraction solvent, 50 μl of each tigecycline working standard solution (or 50 μl of methanol for study samples) and 40 μl of working internal standard solution (5000 ng/ml [t-butyl-d9]-tigecycline in methanol) were added to each tube. All sample tubes were vortexed for about 60 seconds. A tissue homogenizing probe was introduced into the mixture (small particles of prepared bone samples in extraction solvent) to further break up the bone particles. The homogenizing probe was operated at a setting of 4 to 5 (˜10,000 rpm) for about 2 minutes until bone particles in the mixture became a cloudy, white homogenous suspension. The probe was removed from the suspension and cleaned between each sample preparation by immersion in 2 ml of water, operating for 30 to 60 seconds, immersion in 2 ml of methanol, operating for 30 to 60 seconds, and wiping dry. Each sample tube containing bone suspension was centrifuged at 3000 rpm, at room temperature, for about 5 minutes. The supernatant (200 μl) was removed and transferred to a 250-μl conical low volume polypropylene autosampler vial and recentrifuged for another 5 minutes before loading into the HPLC autosampler. A 20 μl aliquot of the supernatant was injected onto the LC/MS/MS for tigecycline determination.
# Liquid chromatography separation procedures were carried out on a 50×2.0 mm (I.D., 3 μm) HPLC analytical column with a pre-column in-line solvent filer (2.0 μm PEEK filter) and a LC/MS switching valve. PEEK tubing ( 1/16 in.×0.005 in.) connected the separation module, analytical column, LC/MS switching valve, and mass spectrometer. The separation module included a refrigerated autosampler, an in-line degasser, and a quaternary solvent delivery system. The analytical column temperature was approximately 20° C.; autosampler temperature was maintained at 4° C. […]
# [3] = Bone Extract (non-neutralized) (pH 1.7), IncRB Group B
smiles,measurement,setting,value
"CN(C)c1cc(NC(=O)CNC(C)(C)C)c(O)c2c1C[C@H]1C[C@H]3[C@H](N(C)C)C(O)=C(C(N)=O)C(=O)[C@@]3(O)C(O)=C1C2=O [tigecycline, Tigecycline]","Zone Size, Sample minus diluent",[1]; [3],11.8 mm
same,"Zone Size, Sample",[1]; [3],33.3 mm
same,"Zone Size, Sample minus diluent",[1]; Neutralized Bone Extract A (pH 7.0),0 mm
same,"Zone Size, Sample","[1]; Neutralized Bone Extract A (pH 7.0), neutralization prior to methanol evaporation",0 mm
same,"Zone Size, Sample minus diluent",[1]; Neutralized Bone Extract B (pH 7.0),0 mm
same,"Zone Size, Sample","[1]; Neutralized Bone Extract B (pH 7.0), neutralization after methanol evaporation",0 mm
same,"Tigecycline concentration in pooled incurred rat bone, Mean ± SD","[2]; Group A, single i.v. dose 3 mg/kg, Day 1, 4 hour, femoral bone pool of 12 rats, 5 replicates",1048 ± 88^b ng/g
same,"Tigecycline concentration in pooled incurred rat bone, Mean ± SD","[2]; Group B, multiple dose 3 mg/kg i.v. 14C-tigecycline once daily for 3 days, Day 3, 4 hour, pool of 19 rats, 5 replicates",3192 ng/g and 3192 ± 93^b ng/g
same,concentration at 4 h,"[2]; intravenous, Group A, single dose 3 mg/kg, Day 1, 4 hour, measured concentration divided by 0.771, read-out: Corrected Mean Conc. in rat bone",1360 ng/g
same,concentration at 4 h,"[2]; intravenous, Group B, multiple dose 3 mg/kg 14C-tigecycline, Day 3, 4 hour, measured concentration divided by 0.771, read-out: Corrected Mean Conc. in rat bone",4140 ng/g
same,concentration at 4 h,"[2]; intravenous, IncRB Group B extract used for the bioassay, read-out: Concentration of tigecycline in extracted rat bone sample as determined by LC/MS",3400 ng/g
same,concentration at 4 h,"[2]; iv, Group A, single i.v. dose 3 mg/kg, Day 1, 4 hour, femoral bone pool of 12 rats, 5 replicates, read-out: Tigecycline concentration in pooled incurred rat bone, Mean ± SD",1050 ng/g
same,IncRB QC sample concentration (incurred rat bone Group A),"[2]; single i.v. 3 mg/kg, 4 hours post-dose, nominal value = mean of 3-day global inter-day validation (n = 15)",987 ng/g and 987^a ng/g
